Laboratory results reported in patent US6214838A, “Thienodipyridine derivatives, production and use thereof” (Takeda Chemical Industries, Ltd., priority 1998, dated 2001).

Columns and labels:
Rat Adjuvant Arthritis = test: Action Against Rat Adjuvant Arthritis (paw swelling suppression); type: in vivo, rat (male Lewis); details: 3.13 mg/kg once daily for 14 days, suspension in 0.5% methyl cellulose; left hind paw volume at day 14; N=6; **: p < 0.05 vs control (Dunnett's test)
[1] = Stability Against Metabolism by Liver Microsome; type: in vitro ADME; details: dog liver microsome, NADPH-producing system, phosphate buffer pH 7.4, 37° C.; n=2, mean
Protocol: Stability Against Metabolism by Liver Microsome:
A dog liver microsome was prepared by a standard method. In a phosphate buffer (pH 7.4), a test substance, a liver microsome and NADPH-producing system [0.5 mM, β-NADP (NADP: nicotinamide adenine dinucleotide phosphate), 1 mM magnesium chloride, 5 mM glucose-6-phosphate, 150units/ml glucose-6-phosphate dehydrogenase (each as final concentration in reaction system)] were mixed and incubated at 37° C. The concentration of the test substance after the discontinuation of the reaction was determined by high pressure liquid chromatography to obtain % residue (n=2, mean).

Residue (%) [1]	SMILES	Swelling suppression rate (%) (Rat Adjuvant Arthritis)
87.8%	COc1ccc(-c2c(Cl)c(CN3C(=O)CCC3=O)nc3sc4c(c23)CCNC4)cc1OC [Example 2, 3-chloro-4-(3,4-dimethoxyphenyl)-5,6,7,8-tetrahydro-2-(succinimidomethyl)thieno[2,3-b:5,4-c']dipyridine]	92%
96.3%	O=C1CCC(=O)N1Cc1nc2sc3c(c2c(-c2ccc(O)cc2)c1Cl)CCNC3 [Example 15, 3-chloro-4-(4-hydroxyphenyl)-5,6,7,8-tetrahydro-2-(succinimidomethyl)thieno[2,3-b:5,4-c']dipyridine]	–
90.5%	COc1ccc(-c2c(Cl)c(CN3C(=O)CCC3=O)nc3sc4c(c23)CCNC4)cc1 [Example 1, 3-chloro-5,6,7,8-tetrahydro-4-(4-methoxyphenyl)-2-(succinimidomethyl)thieno[2,3-b:5,4-c']dipyridine]	94%
–	COc1ccc(-c2c(Br)c(CN3C(=O)CCC3=O)nc3sc4c(c23)CCNC4)cc1 [Example 4, 3-bromo-5,6,7,8-tetrahydro-4-(4-methoxyphenyl)-2-(succinimidomethyl)thieno[2,3-b:5,4-c']dipyridine]	85%
–	COc1cc(-c2c(Cl)c(CN3C(=O)CCC3=O)nc3sc4c(c23)CCN(C(C)=O)C4)ccc1O [Example 22, 7-acetyl-3-chloro-5,6,7,8-tetrahydro-4-(4-hydroxy-3-methoxyphenyl)-2-(succinimidomethyl)thieno[2,3-b:5,4-c']dipyridine]	75%
94.1%	CCOc1ccc(-c2c(Cl)c(CN3C(=O)CCC3=O)nc3sc4c(c23)CCNC4)cc1 [Example 11, 3-chloro-4-(4-ethoxyphenyl)-5,6,7,8-tetrahydro-2-(succinimidomethyl)thieno[2,3-b:5,4-c']dipyridine]	98%
–	COc1ccc(-c2c(Cl)c(CN3C(=O)CCC3=O)nc3sc4c(c23)CCN(C(C)=O)C4)cc1OC [Example 18, 7-acetyl-3-chloro-4-(3,4-dimethoxyphenyl)-5,6,7,8-tetrahydro-2-(succinimidomethyl)thieno[2,3-b:5,4-c']dipyridine]	92%
